Reference: the NIST ThermoML archive (doi:10.1021/je020149l)

Columns and labels:
[1] = 293.15 K; 101.33 kPa; Liquid; Vibrating tube method
[2] = excess molar enthalpy (molar enthalpy of mixing); xn = mol fraction of the nth substance listed; details: 323.15 K, 101 kPa, Liquid, Flow calorimetry

CC(C)=O [acetone]
Details | mass density [kg/m3]
[1] | 790.31

CC(C)=O [acetone] + CCCO
[2]
Details | excess molar enthalpy [kcal/mol]
x2 = 0.025 | 0.0605
x2 = 0.052 | 0.0968
x2 = 0.101 | 0.154
x2 = 0.151 | 0.202
x2 = 0.2 | 0.245
x2 = 0.252 | 0.282
x2 = 0.302 | 0.311
x2 = 0.351 | 0.334
x2 = 0.401 | 0.349
x2 = 0.451 | 0.359
x2 = 0.501 | 0.363
x2 = 0.551 | 0.361
x2 = 0.601 | 0.354
x2 = 0.651 | 0.34
x2 = 0.702 | 0.32
x2 = 0.752 | 0.295
x2 = 0.8 | 0.265
x2 = 0.851 | 0.223
x2 = 0.901 | 0.168
x2 = 0.952 | 0.112
x2 = 0.975 | 0.0803

CC(C)=O [acetone] + CCO
[2]
Details | excess molar enthalpy [kcal/mol]
x2 = 0.05 | 0.0609
x2 = 0.102 | 0.115
x2 = 0.15 | 0.156
x2 = 0.2 | 0.192
x2 = 0.252 | 0.222
x2 = 0.3 | 0.243
x2 = 0.352 | 0.259
x2 = 0.4 | 0.269
x2 = 0.452 | 0.273
x2 = 0.501 | 0.272
x2 = 0.551 | 0.265
x2 = 0.6 | 0.255
x2 = 0.65 | 0.24
x2 = 0.702 | 0.22
x2 = 0.752 | 0.196
x2 = 0.8 | 0.168
x2 = 0.85 | 0.134
x2 = 0.901 | 0.0937
x2 = 0.95 | 0.0504

C1CCCCC1 [cyclohexane]
Details | mass density [kg/m3]
[1] | 778.56

C1CCCCC1 [cyclohexane] + CCO
[2]
Details | excess molar enthalpy [kcal/mol]
x2 = 0.032 | 0.106
x2 = 0.054 | 0.132
x2 = 0.102 | 0.169
x2 = 0.151 | 0.192
x2 = 0.202 | 0.207
x2 = 0.251 | 0.217
x2 = 0.3 | 0.223
x2 = 0.351 | 0.226
x2 = 0.401 | 0.226
x2 = 0.452 | 0.223
x2 = 0.5 | 0.217
x2 = 0.551 | 0.209
x2 = 0.601 | 0.198
x2 = 0.65 | 0.185
x2 = 0.707 | 0.165
x2 = 0.75 | 0.15
x2 = 0.802 | 0.127
x2 = 0.851 | 0.101
x2 = 0.901 | 0.0722
x2 = 0.951 | 0.038

CCO [ethanol]
Details | mass density [kg/m3]
[1] | 789.29

CCCCCCC [heptane]
Details | mass density [kg/m3]
[1] | 683.91

CCCCCCC [heptane] + CCCO
[2]
Details | excess molar enthalpy [kcal/mol]
x2 = 0.01 | 0.0963
x2 = 0.024 | 0.142
x2 = 0.034 | 0.161
x2 = 0.053 | 0.188
x2 = 0.103 | 0.229
x2 = 0.154 | 0.254
x2 = 0.203 | 0.269
x2 = 0.254 | 0.279
x2 = 0.301 | 0.283
x2 = 0.353 | 0.282
x2 = 0.402 | 0.277
x2 = 0.451 | 0.27
x2 = 0.503 | 0.26
x2 = 0.551 | 0.247
x2 = 0.602 | 0.232
x2 = 0.651 | 0.214
x2 = 0.702 | 0.195
x2 = 0.75 | 0.174
x2 = 0.801 | 0.147
x2 = 0.851 | 0.124
x2 = 0.901 | 0.0987
x2 = 0.951 | 0.0717

CCCCCCCC [octane]
Details | mass density [kg/m3]
[1] | 702.87

CCCCCCCC [octane] + CCCO
[2]
Details | excess molar enthalpy [kcal/mol]
x2 = 0.027 | 0.202
x2 = 0.053 | 0.254
x2 = 0.103 | 0.31
x2 = 0.15 | 0.337
x2 = 0.208 | 0.359
x2 = 0.254 | 0.367
x2 = 0.301 | 0.37
x2 = 0.352 | 0.367
x2 = 0.401 | 0.363
x2 = 0.452 | 0.351
x2 = 0.5 | 0.337
x2 = 0.55 | 0.32
x2 = 0.602 | 0.297
x2 = 0.652 | 0.268
x2 = 0.702 | 0.242
x2 = 0.752 | 0.214
x2 = 0.802 | 0.181
x2 = 0.852 | 0.148
x2 = 0.901 | 0.106
x2 = 0.95 | 0.0784

CCCCCCCC [octane] + CCO
[2]
Details | excess molar enthalpy [kcal/mol]
x2 = 0.028 | 0.206
x2 = 0.054 | 0.257
x2 = 0.104 | 0.303
x2 = 0.151 | 0.326
x2 = 0.201 | 0.343
x2 = 0.252 | 0.355
x2 = 0.304 | 0.357
x2 = 0.352 | 0.355
x2 = 0.404 | 0.348
x2 = 0.452 | 0.337
x2 = 0.502 | 0.323
x2 = 0.551 | 0.307
x2 = 0.601 | 0.288
x2 = 0.651 | 0.267
x2 = 0.7 | 0.245
x2 = 0.752 | 0.217
x2 = 0.801 | 0.191
x2 = 0.85 | 0.16
x2 = 0.901 | 0.121
x2 = 0.95 | 0.0813

CCCO [propan-1-ol]
Details | mass density [kg/m3]
[1] | 803.63
